Data from the NIST ThermoML archive (doi:10.1021/je800579j).

Experiment: xn = mol fraction of the nth substance listed
Settings: Liquid, Pycnometric method

C1COCCO1 [1,4-dioxane] + Cc1ccccc1
mass density [kg/m3]
Settings | 288.15 K | 293.15 K | 298.15 K | 303.15 K | 308.15 K | 313.15 K | 318.15 K
x1 = 0.0688 | 881.09 | 876.32 | 871.54 | 866.76 | 861.99 | 857.21 | 852.43
x1 = 0.1373 | 890.67 | 885.84 | 881 | 876.16 | 871.33 | 866.49 | 861.65
x1 = 0.2112 | 901.34 | 896.45 | 891.55 | 886.65 | 881.75 | 876.85 | 871.95
x1 = 0.2858 | 912.47 | 907.51 | 902.55 | 897.58 | 892.62 | 887.66 | 882.7
x1 = 0.3552 | 923.15 | 918.13 | 913.11 | 908.08 | 903.06 | 898.04 | 893.02
x1 = 0.4361 | 936.02 | 930.92 | 925.82 | 920.72 | 915.63 | 910.54 | 905.45
x1 = 0.5064 | 947.57 | 942.41 | 937.25 | 932.09 | 926.93 | 921.77 | 916.61
x1 = 0.5819 | 960.38 | 955.15 | 949.92 | 944.69 | 939.46 | 934.23 | 929
x1 = 0.6506 | 972.39 | 967.1 | 961.8 | 956.5 | 951.21 | 945.92 | 940.63
x1 = 0.7212 | 985.11 | 979.74 | 974.37 | 969.01 | 963.65 | 958.29 | 952.93
x1 = 0.7903 | 997.93 | 992.49 | 987.06 | 981.63 | 976.2 | 970.77 | 965.34
x1 = 0.864 | 1012.02 | 1006.51 | 1001 | 995.5 | 989.99 | 984.49 | 978.99
x1 = 0.9336 | 1025.74 | 1020.16 | 1014.58 | 1009.01 | 1003.44 | 997.87 | 992.3
x1 = 1 | 1039.23 | 1033.59 | 1027.95 | 1022.32 | 1016.68 | 1011.05 | 1005.42

Cc1ccccc1C [1,2-dimethylbenzene] + C1COCCO1
mass density [kg/m3]
Settings | 288.15 K | 293.15 K | 298.15 K | 303.15 K | 308.15 K | 313.15 K | 318.15 K
x2 = 0 | 884.09 | 879.83 | 875.57 | 871.31 | 867.05 | 862.79 | 858.53
x2 = 0.0672 | 891.2 | 886.85 | 882.5 | 878.15 | 873.8 | 869.45 | 865.1
x2 = 0.1391 | 899.18 | 894.73 | 890.29 | 885.85 | 881.41 | 876.97 | 872.53
x2 = 0.2103 | 907.48 | 902.95 | 898.42 | 893.89 | 889.36 | 884.83 | 880.3
x2 = 0.2853 | 916.69 | 912.06 | 907.43 | 902.8 | 898.17 | 893.55 | 888.93
x2 = 0.3543 | 925.67 | 920.95 | 916.23 | 911.51 | 906.79 | 902.08 | 897.37
x2 = 0.4293 | 936 | 931.18 | 926.36 | 921.55 | 916.74 | 911.93 | 907.12
x2 = 0.5092 | 947.69 | 942.77 | 937.85 | 932.93 | 928.02 | 923.11 | 918.2
x2 = 0.581 | 958.89 | 953.86 | 948.83 | 943.81 | 938.79 | 933.77 | 928.75
x2 = 0.6518 | 970.57 | 965.44 | 960.31 | 955.19 | 950.07 | 944.95 | 939.83
x2 = 0.7248 | 983.38 | 978.14 | 972.9 | 967.66 | 962.43 | 957.2 | 951.97
x2 = 0.7888 | 995.25 | 989.91 | 984.57 | 979.23 | 973.9 | 968.57 | 963.24
x2 = 0.8595 | 1009.11 | 1003.66 | 998.21 | 992.77 | 987.33 | 981.89 | 976.45
x2 = 0.9298 | 1023.75 | 1018.19 | 1012.63 | 1007.08 | 1001.53 | 995.99 | 990.45
